Blank lines part the entries; values can stand above or below the substance they belong to.
Assays:
[1] = tested on: purified porcine brain tubulin; experiment: Microtubule assembly assay (MAA) with tau type IA and type IB; format: biochemical; conditions: tau 0.1 mg/ml, tubulin 1 mg/ml, 1 mM GTP, 37° C., 20 min
Description: The physiological function of healthy tau consists in stabilizing microtubules (MTs). This function can be measured by a microtubule assembly assay (MAA). In this examples, the MAA reactions were carried out using three types of tau molecules: normal healthy human tau, recombinant forms of tau type IA (SEQ ID NO: 1) and tau type IB (SEQ ID NO: 4). Normal human tau, tau type IA and type IB were assayed individually in separate reactions. Single preparations of tau at 0.1 mg/ml were mixed with purified porcine brain tubulin at a final concentration of 1 mg/ml and 1 mM GTP, all materials in polymerisation buffer (100 mM PIPES, pH 6.9, 1 mM MgSO4, 2 mM EGTA). Tau was added last to initiate the promotion of MT assembly. After gentle and rapid mixing, the samples were pipetted into quartz microcuvettes and equilibrated at 37° C. in a thermostatically controlled spectrophotometer (Beckman Coulter DU640). The turbidity was continuously monitored at 340 nm in 10 s intervals for a period of 20 min.

Human tubulin = experiment: Inhibition of microtubule assembly by tau type IA and IB (tubulin preincubated, then normal human tau); format: biochemical; conditions: tubulin preincubated 1 hr at 37° C. with 0.2 mg/ml type IA or IB; normal human tau 0.1 mg/ml; 340 nm, 5 min
Description: Both tau type IA and IB molecules lack functional activity when applied in a the MT assembly assay (MAA). […] For inhibition of microtubule assembly, recombinant forms of tau type IA (SEQ ID NO:1) and type IB (SEQ ID NO:4) were used. The assembly-inhibition reactions were carried out separately using type IA and type IB proteins. Human tubulin (2 mg/ml) was mixed with either type IA molecules (0.2 mg/ml) or type IB molecules (0.2 mg/ml). The mixtures were incubated 1 hr at 37° C. with gently shaking. To the mixtures kept on ice normal human tau (0.1 mg/ml) and GTP (final concentration of tubulin in the mixture is 1 mg/ml and GTP 1 mM) were added in polymerization buffer (100 mM PIPES, pH 6.9, 1 mM MgSO4, 2 mM EGTA). After gentle and rapid mixing, the samples were pipetted into quartz microcuvettes and equilibrated at 37° C. in a thermostatically controlled spectrophotometer (Beckman Coulter DU640). The turbidity changes were measured at 340 nm in 10 sec intervals over a period of 5 min.

tubulin [2] = experiment: Inhibitory effect of AD-brain derived and recombinant tau type IA on normal healthy tau in microtubule assembly assay; format: biochemical; conditions: 0.2 mg/ml type IA or IB, healthy tau 0.1 mg/ml, tubulin 1 mg/ml, preincubation 1 hr at 37° C., 340 nm, 5 min
Description: AD-brain extracts as well as recombinant molecules of tau type IA are capable to inhibit microtubule assembly promotion when using natural healthy tau isoforms. For these experiments healthy human tau was isolated from brains of age matched controls and tau type IA was isolated from brains of AD patients (see Example 6, FIG. 6, fraction #19). Recombinant tau type IA (SEQ ID NO: 1) and type IB (SEQ ID NO:4, negative control) were produced and purified as shown in Example 6. In these experiments, brain-derived healthy tau isoforms (0.1 mg/ml), AD-brain derived or recombinant type IA tau or type IB (0.2 mg/ml) were mixed with tubulin. Each combination was assayed separately. The test mixtures were incubated 1 hr at 37° C. in a water bath with gently shaking. To the mixture kept on ice was added GTP and/or normal tau (final concentration of tubulin is 1 mg/ml and GTP 1 mM) all reagencies in polymerisation buffer (100 mM PIPES, pH 6.9, 1 mM MgSO4, 2 mM EGTA). After gentle and rapid mixing, the samples were pipetted into quartz microcuvettes and equilibrated at 37° C. in a thermostatically controlled spectrophotometer (Beckman Coulter DU640). The turbidity changes were measured at 340 nm in 10 s intervals for a period of 5 min. […] Curve 1 (FIG. 12) represents microtubule assembly promoted by normal tau.

tau monoclonal antibody = experiment: Competitive ELISA, affinity of monoclonal antibody to tau type IA and deletion mutants; format: binding; conditions: read-out: apparent affinity (antigen concentration needed for 50% competition with prototype tau type IA)
Description: FIG. 5: Affinity of monoclonal antibody to diseased tau type IA protein and its deletion mutants. Apparent affinity of monoclonal antibody to diseased tau type IA protein and its deletion mutants. In the first column are listed: the ‘prototype’ tau type IA protein (SEQ ID NO 1) and respective deletion mutants. In the middle column are indicated epitopes of the present invention. Apparent affinities stated in the last column were measured by competitive ELISA, and shown as the concentrations of corresponding antigen needed for 50% competition with the prototype tau type IA protein.
The significance of the ‘conformational region’ in tau type IA (segment A) or its parts was determined by sequential deletion either of whole conformation region (segment A) or its individual parts called epitopes and designated A1-A6. Since the conformation of type IA molecules strongly correlates with their function, the contribution of each epitope (A1-A6) to the overall conformation of the ‘segment A’ was measured on the basis of its reactivity when using a tau monoclonal antibody (FIG. 5).

tubulin [3] = experiment: Microtubule assembly with tau type IIA and IIB; format: biochemical; conditions: tau 0.1 mg/ml, tubulin 1 mg/ml, GTP 1 mM, 37° C., 340 nm, 5 min
Description: The microtubule assembly reactions were carried out using three types of molecules: natural healthy human tau isoforms, Alz. tau type IIA (SEQ ID NO: 12) and tau type JIB (SEQ ID NO: 19). Three separate reactions were performed, each with single preparation of respective tau (healthy tau, recombinant tau type IIA or type IIB). Individual tau preparations at 0.1 mg/ml were mixed with tubulin and GTP (final concentration of tubulin is 1 mg/ml and GTP 1 mM), all reagencies in polymerisation buffer (100 mM PIPES, pH 6.9, 1 mM MgSO4, 2 mM EGTA). After gentle and rapid mixing, the samples were pipetted into quartz microcuvettes and equilibrated at 37° C. in a thermostatically controlled spectrophotometer (Beckman Coulter DU640). The turbidity changes were measured at 340 nm in 10 s intervals for a period of 5 min.

[4] = tested on: neuroblastoma cells expressing tau type IIA; experiment: Oxidative stress (SIN-1) vulnerability, MTT reduction assay; format: cell-based, human; conditions: cells expressing the tau protein vs non-expressing cells, SIN-1 0-3.3 mM, 24 hours
Description: In the present example, the oxidative decomposition of 3-morpholinosydnonimine (SIN-1) was used which generates superoxide anions and nitric oxide, which react and thereby form peroxynitrite. This very reactive radical can further oxidize mainly cellular membrane systems. Persons skilled in art will be able to also apply another sources of oxidative stress to neuroblastoma cells in culture and will be able to obtain the same effect here described by the use on SIN-1.
The effect of vulnerability was tested as follows: • 1. SIN-1 was applied at various concentrations (0-3.32 mM) to human neuronal cell lines expressing tau type IIA protein SEQ ID NO 15 and SEQ ID NO 11, respectively. • 2. […] The EC50 values were compared for neuroblastoma cell lines in the presence or absence of diseased tau type IIA protein expression and the statistical significance of EC50 value differences was assessed by t-test. […]
After five day, SIN-1 was added in concentrations ranging from 0 to 3.3 mM and the plates were incubated for 24 hours. […] The absorbance at 540 nm with background correction at 690 nm was measured on ELISA reader and the background-subtracted values were used for EC50 calculation, as it is well known in the art. […]

microtubules = experiment: Electron microscopy of microtubules formed with tau; format: biochemical
Description: However, Alzheimer tau type II produces pathological microtubules with typical pattern (see FIG. 28C).

Substance: normal healthy tau: tau protein derived from healthy brains [reference compound]
microtubule assembly promotion (turbidity at 340 nm) [1]: microtubule assembly promotion capacity

Substance: SEQ ID NO: 4: type IB double truncated tau, 239-326, R4
microtubule assembly promotion (turbidity at 340 nm) [1]: lacked any MT assembly promotion
inhibition of microtubule assembly promoted by normal human tau (Human tubulin): does not inhibit the microtubule assembly capacity of normal tau
inhibition of the capacity of normal tau to promote microtubule assembly (tubulin [2]): not able to inhibit

IC50 (tau monoclonal antibody): 0.01 µM
Substance: SEQ ID NO: 1: type IA N- and C-terminally double truncated tau, residues 239-333 of four repeat tau43
microtubule assembly promotion (turbidity at 340 nm) [1]: lacked any MT assembly promotion
inhibition of microtubule assembly promoted by normal human tau (Human tubulin): abolished microtubule assembly
inhibition of the capacity of normal tau to promote microtubule assembly (tubulin [2]): inhibit the capacity of normal tau to promote microtubule assembly

Substance: SEQ ID NO: 19: type IIB double truncated tau, 6-378, R4
promotion of microtubule assembly compared to healthy tau (tubulin [3]): promote microtubule assembly only to the level seen with healthy tau

decrease of resistance of neuroblastoma cells to oxidative stress (EC50 of SIN-1) [4]: 50%
Substance: SEQ ID NO: 12: type IIA double truncated tau, 93-333, R4
promotion of microtubule assembly compared to healthy tau (tubulin [3]): extremely high (threefold) promotion

decrease of resistance of neuroblastoma cells to oxidative stress (EC50 of SIN-1) [4]: 50%
Substance: SEQ ID NO: 18: type IIA double truncated tau, 69-332, R3

Substance: tau 43: shortest four repeat tau isoform, 383 amino acids, missing exons 2 and 3
type of microtubules formed (electron microscopy) (microtubules): forms typical microtubules

— US9485972B2, “Truncated tau proteins” (Axon Neuroscience SE, priority 2002, dated 2016)
